# From ChEMBL document CHEMBL4725410, “Novel Heteroaromatic Compounds as Vanin Inhibitors” (ACS Med Chem Lett, 2020)
# Target: T1, Pantetheinase (Homo sapiens, UniProt O95497)
# T1 sequence (O95497 whole entry): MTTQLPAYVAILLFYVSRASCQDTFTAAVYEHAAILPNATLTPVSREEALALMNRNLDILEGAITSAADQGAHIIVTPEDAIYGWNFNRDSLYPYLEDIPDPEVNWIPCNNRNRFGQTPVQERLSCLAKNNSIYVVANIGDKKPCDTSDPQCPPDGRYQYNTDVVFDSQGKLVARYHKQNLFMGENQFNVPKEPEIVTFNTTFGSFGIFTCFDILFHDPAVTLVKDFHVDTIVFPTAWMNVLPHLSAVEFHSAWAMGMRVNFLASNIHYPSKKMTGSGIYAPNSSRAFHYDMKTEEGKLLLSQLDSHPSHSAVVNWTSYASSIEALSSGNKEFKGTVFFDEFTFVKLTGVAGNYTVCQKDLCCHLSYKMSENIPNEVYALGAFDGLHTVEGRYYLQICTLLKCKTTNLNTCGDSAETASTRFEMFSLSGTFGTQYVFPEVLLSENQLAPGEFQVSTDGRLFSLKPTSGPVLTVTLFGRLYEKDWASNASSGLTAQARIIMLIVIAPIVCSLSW
# Assay: Inhibition of human vanin-1 in whole blood
# Format: tissue-based
row,SMILES,IC50
1,CC(=O)N(C)[C@H]1CCN(C(=O)c2ccc(NC(C)(C)CCO)nc2)C1,1.6 nM
2,CCC(C)(C)Nc1ccc(C(=O)N2CC[C@H](N(C)C(C)=O)C2)cn1,3.1 nM
3,CC(C)(C)Nc1ccc(C(=O)N2CC[C@H](N3CCOC3=O)C2)cn1,4 nM
4,CN(C(=O)[C@@H]1CCCO1)[C@H]1CCN(C(=O)c2ccc(NC(C)(C)C)nc2)C1,2.7 nM
5,CN(C(=O)C1CC(F)(F)C1)[C@H]1CCN(C(=O)c2ccc(NC(C)(C)C)nc2)C1,3.6 nM
6,CC(C)(C)Nc1ccc(C(=O)N2CC(C)(c3ccccn3)C2)cn1,2.7 nM
